Measurements as given in paper PMC10044245, “Comparative Evaluation of Existing and Rationally Designed Novel Antimicrobial Peptides for Treatment of Skin and Soft Tissue Infections” (Antibiotics, 2023).
Values after ≈ are worked out from the molar mass of the structure shown. Where a SMILES comes first, the peptide text is derived from it.

Assays:
[1] = tested on: BALB/c 3T3 murine fibroblast cell line; assay: Cytotoxicity, neutral red uptake assay; format: cell-based; details: Balb/c 3T3, neutral red uptake, 48 h, tested 3.9–500 μg/mL
From the text: The BALB/c 3T3 murine fibroblast cell line was obtained from ATCC (American Type Culture Collection, Manassas, VA, USA). Primary human dermal fibroblasts were isolated by enzymatic digestion from skin biopsies in the Laboratory of Bioanalytical and Biodosimetry Methods, University of Latvia, in accordance with the approval of the Committee of Research Ethics of the Institute of Cardiology and Regenerative Medicine, University of Latvia. Cells were propagated in DMEM medium (Sigma, Irvine, UK), supplemented with 1% penicillin (100 U/mL)–streptomycin (100 μg/mL), and 10% calf serum (Sigma, St. Louis, MO, USA) for Balb/c 3T3 cell line and fetal bovine serum (Sigma, St. Louis, MO, USA) for primary dermal fibroblasts. All cultivations were performed in a humidified 5% CO2 atmosphere at 37 °C.
The cytotoxicity of the peptides was tested in the BALB/c3T3 cell line and primary dermal fibroblasts by the neutral red (NR) uptake assay. Cells were seeded in 96-well plates at a density of 5 × 10^3 cells per well. After 24 h of incubation, peptides in a concentration range of 3.9 to 500 μg/mL were added. Dilutions were made in a cell cultivation medium. Cultivation in the presence of extracts was performed for 48 h. Afterwards, plates were washed with phosphate-buffered saline (PBS) (Sigma, Irvine, UK), and a 25 µg/mL NR solution (Sigma, Irvine, UK) diluted in 5%-fetal-calf-serum-containing-media was added. After 3 h, incubation in a humidified 5% CO2 atmosphere at 37 °C, the plate was washed with PBS, and the NR taken up by viable cells was extracted using desorbing fixative (50% ethanol/1% acetic acid/49% water). Absorbance at 540 nm was measured using a microplate reader Tecan Infinite® 200 PRO (Tecan Group Ltd., Mannedorf, Switzerland). Cytotoxicity was expressed as a concentration-dependent reduction in the uptake of NR, compared to the untreated controls and calculated using the following equation: Cell viability (%)=Abs540nm(treatment)−Abs540nm(background)/Abs540nm(untreated control)−Abs540nm(background)×100%

[2] = tested on: HaCaT keratinocytes; details: cited from earlier work
[3] = tested on: P. aeruginosa; assay: microbe, parasite or virus in culture; format: cell-based, Pseudomonas aeruginosa; details: 96-well plate, serial dilutions, 32 °C, 13–18 h, 200 rpm, OD 550 nm
Protocol: Quantification of the antimicrobial resistance against various AMPs was carried out by measuring the bacterial growth in the presence of peptides at serial dilutes in 96 well plates in a microplate (96-well plate) reader Infinite® M200 PRO Multimode Microplate Reader (Tecan, Maennedorf, Switzerland) according to our recent reports. All bacterial strains were incubated at 32 °C for 13–18 h at 200 rpm. Optical density measurements (λ = 550 nm) were taken automatically at 10 min intervals. Antimicrobial resistance activity was quantified as the minimum inhibitory concentration (MIC)—the lowest concentration of a peptide which prevents growth of bacterial cells.

[4] = tested on: human peripheral blood mononuclear cells (PBMNCs); assay: Viability of PBMNCs, MTT reduction assay; format: cell-based; details: 24 h, 4 and 20 μg/mL with or without 5 µg/mL LPS, n = 3
Protocol: (§1) The effect of the peptides was evaluated in human peripheral blood mononuclear cells (PBMNCs). Blood from healthy donors was collected in Monovette vacutainers containing EDTA. Blood was collected in accordance with the approval of the Committee of Research Ethics of the Institute of Cardiology and Regenerative Medicine, University of Latvia. Blood was diluted (1:2 ratio by volume) with 0.9% sodium chloride solution supplemented with 10 U/mL heparin and mononuclear cell fraction isolated by gradient centrifugation. Diluted blood samples were layered on Ficoll-Paque solution in ratio 2:1 (GE Healthcare, Chicago, IL, USA), and density gradient centrifugation was performed at 800× g for 20 min at room temperature in a swing-out centrifuge. Mononuclear cells containing buffy coats were aspirated and washed twice with phosphate-buffered saline and centrifuged at 600× g for 20 min at room temperature. […]
Viability of PBMNCs after incubation with peptides was evaluated using MTT reduction assay. […] Absorption was measured at 570 nm using Tecan Infinite® 200 PRO (Tecan Group Ltd., Mannedorf, Switzerland).
Blank wells without cells were used for the background measurement. Proliferation relative to control was calculated using the equation below. […]

[5] = tested on: TNF-α secretion in LPS stimulated PBMNCs; assay: TNF-α secretion by PBMNCs, ELISA; format: cell-based, human; details: 24 h
Protocol: as §1, with “temperature. The cell pellet was suspended in DMEM medium (Sigma, D6046, Irvine, UK) supplemented with 1% penicillin (100 U/mL)–streptomycin (100 μg/mL) and 10% fetal bovine serum (Sigma, St. Louis, MO, USA), and cells were seeded on 24-well plates at a density of 5 × 10^5 cells per well and incubated at 37 °C, 5% CO2.” for “temperature.”
(§2) Concentrations of TNF-α and IL-10 secreted in cultivation media by PBMNCs were determined using enzyme-linked immunosorbent assay (ELISA). […]

[6] = tested on: IL-10 secretion in LPS stimulated PBMNCs; assay: IL-10 secretion by PBMNCs, ELISA; format: cell-based, human; details: LPS and 20 μg/mL peptide, 24 h
Protocol: as §1, with “temperature. The cell pellet was suspended in DMEM medium (Sigma, D6046, Irvine, UK) supplemented with 1% penicillin (100 U/mL)–streptomycin (100 μg/mL) and 10% fetal bovine serum (Sigma, St. Louis, MO, USA), and cells were seeded on 24-well plates at a density of 5 × 10^5 cells per well and incubated at 37 °C, 5% CO2.” for “temperature.”
as §2

[7] = tested on: C. acnes; details: cited from earlier work
Protocol: Five AMPs were examined earlier for treatment of individual bacteria related to skin and soft tissue infections, while none of them were tested against all ESCAPE pathogens simultaneously. Peptide R1 is a direct derivate of earlier published RP551 [47], with the replacement of non-proteinogenic amino acid, ornithine (O) by lysine (K) at the positions 3,8,11, and 14.

Row | SMILES | concentrations at which cytotoxic / reduced cell viability [1] | concentrations without cytotoxic effect [2] | MIC P. aeruginosa [3] | reduction of PBMNC viability [4] | increase of TNF-α secretion [5] | increase of IL-10 secretion compared to LPS alone [6] | antimicrobial activity against C. acnes [7]
1 | CC(C)[C@H](N)C(=O)N[C@@H](CCCCN)C(=O)N[C@@H](CCCNC(=N)N)C(=O)N[C@@H](Cc1c[nH]c2ccccc12)C(=O)N[C@@H](CCCCN)C(=O)N[C@@H](CCCCN)C(=O)N[C@@H](Cc1c[nH]c2ccccc12)C(=O)N[C@@H](Cc1c[nH]c2ccccc12)C(=O)N[C@@H](CCCNC(=N)N)C(=O)N[C@@H](CCCCN)C(=O)N[C@@H](Cc1c[nH]c2ccccc12)C(=O)N[C@@H](CCCCN)C(=O)N[C@@H](CCCCN)C(=O)N[C@@H](Cc1c[nH]c2ccccc12)C(=O)N[C@H](C(=O)O)C(C)C [LZ1, reference compound] (H-VKRWKKWWRKWKKWV-OH) | 62.5 µg/mL | up to 200 μg/mL | – | – | – | – | –
2 | CC[C@H](C)[C@H](NC(=O)CNC(=O)[C@H](CCCCN)NC(=O)[C@H](Cc1ccc(O)cc1)NC(=O)[C@H](CS)NC(=O)[C@@H](NC(=O)[C@H](CCCCN)NC(=O)[C@H](Cc1ccccc1)NC(=O)[C@H](CS)NC(=O)[C@H](Cc1c[nH]c2ccccc12)NC(=O)[C@@H](N)CCCNC(=N)N)C(C)C)C(=O)N[C@@H](CS)C(=O)N[C@@H](Cc1ccc(O)cc1)C(=O)N[C@@H](CCCCN)C(=O)N[C@@H](CCCCN)C(=O)N[C@@H](CS)C(=O)N[C@@H](CCCCN)C(=O)O [RP556] (H-RWCFKVCYKGICYKKCK-OH; N-terminus and C-terminus assumed) | only at the highest concentration | – | 2 µg/mL (≈ 0.927 µM) | ≤ 17.5% | below 18.3% | 35.56% | 2 to 4 µg/mL
